Source: US9198967B2, “Pharmaceutical compositions active in preventing, stabilizing and treating Alzheimer's disease” (priority 2009, dated 2015)

Tested on: fusiform erythrocytes (FE)
Experiment: FE percentage by Nomarski microscopy on 400 erythrocytes, 6-month clinical study
Format: in vivo, human
Conditions: 6 months
Protocol: The effect of the composition of the invention on FE is measured by the percentage difference in fusiform erythrocytes present in the patient's blood before and after treatment with the composition of the invention.
During the assessments blood was collected, after fasting since the previous evening, into heparinized and non-heparinized tubes. Aliquots of 5 ml were collected (2 of plasma and 1 of serum) from the brachial vein. The collected blood was immediately centrifuged and kept at −80° C. until required for the measurements. A fourth aliquot of 2 ml, without heparin, was collected for FE analysis.
FE measurements were carried out by isolating the erythrocyte pellet by centrifugation (100×g for 15 minutes at 4° C.) and diluting it in 2 ml of a citrate-phosphate-dextrose solution with adenine (CPDA) then centrifuged once more.
After centrifugation the upper part of the solution was removed and the process repeated three times always resuspending with CPDA.
Immediately after the last preparation, FE percentage was calculated using a microscope with Nomarski optics based on an analysis of 400 erythrocytes [Mohanty J G, Eckley D M, J D Williamson et al. Do red blood cell-β-amyloid interaction alter oxygen delivery in Alzheimer's disease? Adv Exp Med Biol 2008; 614:29-35.]

Compound: COc1cc2c(cc1OC)C(=O)C(CC1CCN(Cc3ccccc3)CC1)C2 (stereo not shown) [Donepezil]
- effect on the number of FE (in words): improvement in the FE
